What all share (format): cell-based
One experiment concerns the target T1, Her2 (Homo sapiens, UniProt P04626).
T1 construct: fused on or other part: P00533 (Epidermal growth factor receptor)
The experiment in a line: HER-2 ELISA: EGF receptor-HER2 chimeric receptor assay in whole cells (HER2 kinase). The note with it: NIH3T3 cells with EGFR/HER2 chimeric receptor, phosphotyrosine ELISA. The method, boiled down: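 NIH3T3 cells expressing an EGFR extracellular/HER2 kinase-domain chimera, serum-reduced (0.5%), pretreated 2 h with compound (1% DMSO final), then stimulated 5 min with 100 nM EGF at room temperature. Lysate phosphotyrosine quantified by anti-pTyr ELISA, OD 410 nm; % inhibition after negative-control subtraction.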

The subject of the next experiment is A431. Put plainly: A431 growth. The settings on record: Homo sapiens, A-431, A431 cells.
The target in another experiment is EGFR (Homo sapiens, UniProt P00533). Put plainly: EGF-induced BrdU incorporation assay. Set-up: expressed in transfected cells; host or cells: 3T3. The note with it: 3T3 cells expressing human EGF-R, EGF 2 nM, read-out: BrdU DNA syn. EGFr IC50. As for the experimental part: The cellular/biologic assays described herein measure the amount of DNA made in response to activation of a test kinase, which is a general measure of a proliferative response. The general procedure for this assay is as follows: a compound is introduced to cells expressing the test kinase, either naturally or recombinantly, for some period of time after which, if the test kinase is a receptor, a ligand known to activate the receptor is added. After incubation at least overnight, a DNA labeling reagent such as Bromodeoxy-uridine (BrdU) or 3H-thymidine is added. The amount of labeled DNA is detected with either an anti-BrdU antibody or by measuring radioactivity and is compared to control cells not contacted with a test compound.
Sequence of EGFR (P00533 25-1210): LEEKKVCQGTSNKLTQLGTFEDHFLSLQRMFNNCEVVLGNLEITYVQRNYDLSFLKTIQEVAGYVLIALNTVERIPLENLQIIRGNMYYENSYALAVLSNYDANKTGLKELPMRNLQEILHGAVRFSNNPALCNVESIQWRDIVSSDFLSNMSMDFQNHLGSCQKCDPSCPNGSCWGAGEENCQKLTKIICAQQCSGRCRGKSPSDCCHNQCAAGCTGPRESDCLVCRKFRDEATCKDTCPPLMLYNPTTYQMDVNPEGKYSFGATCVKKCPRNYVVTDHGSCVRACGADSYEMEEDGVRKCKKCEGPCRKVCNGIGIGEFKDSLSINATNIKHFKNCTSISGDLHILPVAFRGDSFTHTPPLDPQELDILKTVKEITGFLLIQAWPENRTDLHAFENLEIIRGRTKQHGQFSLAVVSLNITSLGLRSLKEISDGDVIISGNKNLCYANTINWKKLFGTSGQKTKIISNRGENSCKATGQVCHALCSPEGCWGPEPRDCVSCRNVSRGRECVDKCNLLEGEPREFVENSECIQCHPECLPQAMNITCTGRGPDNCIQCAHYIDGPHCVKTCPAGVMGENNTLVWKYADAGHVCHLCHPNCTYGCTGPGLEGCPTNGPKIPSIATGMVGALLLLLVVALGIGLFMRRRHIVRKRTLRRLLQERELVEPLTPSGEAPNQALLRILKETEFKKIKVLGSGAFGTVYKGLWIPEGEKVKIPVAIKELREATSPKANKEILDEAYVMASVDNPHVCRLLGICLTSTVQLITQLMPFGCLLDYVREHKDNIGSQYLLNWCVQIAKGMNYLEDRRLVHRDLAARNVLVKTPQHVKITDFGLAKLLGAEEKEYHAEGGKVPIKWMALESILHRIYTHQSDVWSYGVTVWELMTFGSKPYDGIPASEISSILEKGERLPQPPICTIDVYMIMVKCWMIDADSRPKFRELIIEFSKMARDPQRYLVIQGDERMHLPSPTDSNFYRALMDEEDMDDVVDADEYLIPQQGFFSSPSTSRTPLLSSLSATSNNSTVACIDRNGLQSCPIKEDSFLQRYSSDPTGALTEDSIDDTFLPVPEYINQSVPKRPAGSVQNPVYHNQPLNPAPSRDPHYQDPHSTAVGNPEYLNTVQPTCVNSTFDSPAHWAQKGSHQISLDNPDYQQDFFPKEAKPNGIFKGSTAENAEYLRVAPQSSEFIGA
EGF-Induced BrdU Incorporation Assay
(8) 3T3 cell line genetically engineered to express human EGF-R.
(1) Cells are seeded at 8000 cells/well in 10% CS, 2 mM Gin in DMEM, in a 96 well plate. Cells are incubated overnight at 37° C. in 5% CO2.
(2) After 24 hours, the cells are washed with PBS, and then are serum starved in serum free medium (0% CS DMEM with 0.1% BSA) for 24 hours.
(3) On day 3, ligand (EGF, 2 nM, prepared in DMEM with 0.1%/BSA) and test compounds are added to the cells simultaneously. The negative control wells receive serum free DMEM with 0.1% BSA only; the positive control cells receive the ligand (EGF) but no test compound. Test compounds are prepared in serum free DMEM with ligand in a 96 well plate, and serially diluted for 7 test concentrations.
(4) After 20 hours of ligand activation, diluted BrdU labeling reagent (1: 100 in DMEM, 0.1% BSA) is added and the cells are incubated with BrdU (final concentration=10 μM) for 1.5 hours.
(10) The absorbance of the samples are measured at 410 nm (in “dual wavelength” mode with a filter reading at 490 nm, as a reference wavelength) on a Dynatech ELISA plate reader.
(Dividing cells build labelled thymidine or BrdU into new DNA.)

The next experiment concerns SKOV3. The experiment in a line: SKOV3 growth. The note with it: Homo sapiens, SK-OV-3, SKOV3 cells.

Structures are written as SMILES. Read-outs that look alike come from different tables or passages of the source.

T1 sequence (P04626 676-1255 limits assumed): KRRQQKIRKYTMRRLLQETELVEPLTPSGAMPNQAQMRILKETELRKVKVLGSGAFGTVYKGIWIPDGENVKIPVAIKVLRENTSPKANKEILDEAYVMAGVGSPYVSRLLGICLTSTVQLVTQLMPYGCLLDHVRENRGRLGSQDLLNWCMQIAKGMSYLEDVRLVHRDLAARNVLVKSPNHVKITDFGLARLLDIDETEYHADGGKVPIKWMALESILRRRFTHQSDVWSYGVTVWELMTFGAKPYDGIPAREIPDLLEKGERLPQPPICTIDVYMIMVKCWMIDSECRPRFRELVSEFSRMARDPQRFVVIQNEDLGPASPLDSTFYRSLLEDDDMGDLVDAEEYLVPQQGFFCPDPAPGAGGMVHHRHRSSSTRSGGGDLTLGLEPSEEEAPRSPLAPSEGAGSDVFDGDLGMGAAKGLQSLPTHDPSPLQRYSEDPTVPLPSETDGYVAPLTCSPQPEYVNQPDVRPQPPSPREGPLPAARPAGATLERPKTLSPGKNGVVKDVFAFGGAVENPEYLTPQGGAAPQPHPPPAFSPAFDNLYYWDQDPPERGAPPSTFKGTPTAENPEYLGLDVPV

On to `COc1ccc(CC2C(=O)Nc3ccc(F)cc32)cc1C1CCCC1` (stereo not shown) [AAI-5, 3-(3-Cyclopentyl-4-methoxybenzyl)-5-fluoro-1,3-dihydroindol-2-one], for which the IC50 at Her2 (Table 5) came to 16.4 µM; in the experiment with A431 (Table 5), 5.26 µM; on EGFR (Table 5) it was 30 µM; in the experiment with SKOV3 (Table 5), 17.9 µM.

On to `COc1c(C(C)C)cc(CC2C(=O)Nc3ccccc32)cc1C(C)C` (stereo not shown) [AAI-10, 3-(3,5-Diisopropyl-4-methoxybenzyl)-1,3-dihydroindol-2-one], for which the IC50 is 22.2 µM against Her2 (Table 5), 17.7 µM in the experiment with A431 (Table 5), over 50 µM on EGFR (Table 5) and 17.3 µM with SKOV3 (Table 5).

Consider `O=C1Nc2ccc(F)cc2C1Cc1ccc(O)c(C2CCCC2)c1` (stereo not shown) [AAI-11, 3-(3-Cyclopentyl-4-hydroxybenzyl)-5-fluoro-1,3-dihydroindol-2-one], for which the IC50 was over 100 µM against Her2 (Table 5), 29.6 µM in the experiment with A431 (Table 5), over 50 µM on EGFR (Table 5) and 21.8 µM in the experiment on SKOV3 (Table 5).

Regarding `COc1cccc(-c2ccc3c(c2)NC(=O)C3Cc2ccccc2O)c1` (stereo not shown) [AAI-13, 3-(2-Hydroxybenzyl)-6-(3-methoxyphenyl)-1,3-dihydroindol-2-one], the IC50 against Her2 (Table 5) was over 100 µM; with A431 (Table 5), over 50 µM; on EGFR (Table 5), over 50 µM; with SKOV3 (Table 5) it was over 50 µM.

Turning to `Cc1[nH]c(CC2C(=O)Nc3ccccc32)c(C)c1CCCN(C)C` (stereo not shown) [AAI-18, 3-[4-(3-Dimethylaminopropyl)-3,5-dimethyl-1H-pyrrol-2-ylmethyl]-1,3-dihydroindol-2-one], the half-maximal inhibitory concentration (IC50) at Her2 (Table 5) was 28.5 µM; in the experiment on A431 (Table 5), over 50 µM; at EGFR (Table 5), over 50 µM; with SKOV3 (Table 5), 43 µM.

On to `COc1ccccc1-c1ccc2c(c1)NC(=O)C2Cc1[nH]c(C)c(CCCN(C)C)c1C` (stereo not shown) [AAI-20, 3-[4-(3-Dimethylamino-propyl)-3,5-dimethyl-1H-pyrrol-2-ylmethyl]-6-(2-methoxy-phenyl)-1,3-dihydro-indol-2-one], for which the IC50 was 20.9 µM on Her2 (Table 5), 11.1 µM in the experiment with A431 (Table 5), 38.5 µM at EGFR (Table 5) and 8.81 µM in the experiment on SKOV3 (Table 5).

With `COc1ccc(-c2ccc3c(c2)NC(=O)C3Cc2[nH]c(C)c(CCCN(C)C)c2C)cc1` (stereo not shown) [AAI-22, 3-[4-(3-Dimethylaminopropyl)-3,5-dimethyl-1H-pyrrol-2-ylmethyl]-6-(4-methoxyphenyl)-1,3-dihydroindol-2-one], the IC50 at Her2 (Table 5) was 21.4 µM; in the experiment with A431 (Table 5), 32.9 µM; at EGFR (Table 5) it was 27.6 µM; with SKOV3 (Table 5) it was over 50 µM.

With `CC(C)c1cccc(OCCc2cccc3c2CC(=O)N3)c1` [IN-001, 4-[2-(3-Isopropyl-phenoxy)-ethyl]-1,3-dihydro-indol-2-one], the IC50 on Her2 (Table 7) was 16.6 µM; with A431 (Table 7), 12.3 µM; at EGFR (Table 7), 32.5 µM; in the experiment with SKOV3 (Table 7), 27.8 µM.

Turning to `CC(C)c1ccccc1OCCc1cccc2c1CC(=O)N2` [IN-002, 4-[2-(2-Isopropyl-phenoxy)-ethyl]-1,3-dihydro-indol-2-one], the IC50 against Her2 (Table 7) is 18 µM; in the experiment with A431 (Table 7), 8.2 µM; on EGFR (Table 7) it was 41.5 µM; in the experiment with SKOV3 (Table 7) it was 24.5 µM.

For the molecule `O=C1Cc2c(CCOc3cccc(-c4ccccc4)c3)cccc2N1` [IN-003, 4-[2-(Biphenyl-3-yloxy)-ethyl]-1,3-dihydro-indol-2-one], the IC50 came out at 15.5 µM on Her2 (Table 7), 8.7 µM in the experiment with A431 (Table 7), 29 µM on EGFR (Table 7) and 17.8 µM in the experiment on SKOV3 (Table 7).

For `O=C1Nc2cccc(CCO)c2/C1=C\c1ccc(Br)cc1` [IN-004, 3-(4-Bromo-benzylidene)-4-(2-hydroxy-ethyl)-1,3-dihydro-indol-2-one], the IC50 on Her2 (Table 7) is 10.6 µM; with A431 (Table 7) it was 1.1 µM; on EGFR (Table 7), 4.7 µM; in the experiment with SKOV3 (Table 7), 2.9 µM.

For `Cc1cccc(/C=C2\C(=O)Nc3cccc(CCO)c32)n1` [IN-006], the half-inhibitory concentration (IC50) at Her2 (Table 7) was 10.6 µM; in the experiment with A431 (Table 7), 6 µM; at EGFR (Table 7) it was 11.1 µM; with SKOV3 (Table 7), 5 µM.

Consider `COc1ccc(/C=C2\C(=O)Nc3cccc(CCO)c32)cc1-c1cccs1` [IN-008, 4-(2-Hydroxy-ethyl)-3-(4-methoxy-3-thiophen-2-yl-benzylidene)-1,3-dihydro-indol-2-one], for which the IC50 is 8.5 µM against Her2 (Table 7), 2.5 µM in the experiment on A431 (Table 7), 31.3 µM on EGFR (Table 7) and 1.5 µM with SKOV3 (Table 7).

One may read the IC50 as the point on the concentration scale where inhibition reaches its midpoint.
